Legend:
Type in all cases: in vivo
[1] = system: rice seedlings (hybrid rice variety ADT45) under heat stress; assay: Transplant shock stress, visual assessment of damage severity, Ramapuram trial; conditions: for Transplanting shock stress (8th day) / Transplanting shock stress (12th day) / Transplanting shock stress (4th day): Ramapuram
Excerpt: (§1) Trials were setup in two locations in India to test the effect of compounds of formula I on tolerance of rice seedlings to heat stress during transplantation.
(§2) For each trial, hybrid rice variety ADT45 was sown in seedling boxes. A compound of formula (Ia) was applied by foliar spray in the form of an EC formulation, at various dose rates and seedling growth stages as shown in Table 1.
(§3) Transplanting took place at the […] growth stage. Transplant shock was used as an indicator of tolerance to heat stress, and was measured via visual assessment of damage severity on a scale of 0% (no damage) to 100% (dead plant); observations such as yellowing and leaf tip burning are indicators of damage. Transplant shock was also assessed by measuring NVDI values using a Green Seeker™ crop sensor, which measures the percentage green area. A low transplant shock stress rating and high NVDI rating indicate improved tolerance to transplant shock stress.
(§4) The trial was carried out between 5 Aug. 2015 and 9 Sep. 2015, with transplanting on 15 Aug. 2015. The mean maximum daily temperature during the trial period was 35.3° C., and mean minimum daily temperature during the trial period was 23.7° C. The mean temperature during the entire trial period was 30.2° C.

[2] = system: rice seedlings (hybrid rice variety ADT45) under heat stress; assay: Green seeker data, Ramapuram trial; design: key: percentage green area (NDVI), higher = better tolerance
Excerpt: as §1, §2, §3, §4

[3] = system: rice seedlings (hybrid rice variety ADT45); assay: Phytotoxicity assessments at Ramapuram trial; conditions: for Greenness at 3.2 leaf / Seedling height at 3.2 leaf / Seedling injury / Time to 3.2 leaf / Uniformity of foliage growth at 3.2 leaf / Uniformity of greening at 3.2 leaf / Whiteness of root mat at 3.2 leaf: Ramapuram
Protocol: For each trial, hybrid rice variety ADT45 was sown in seedling boxes. A compound of formula (Ia) was applied by foliar spray in the form of an EC formulation, at various dose rates and seedling growth stages as shown in Table 1. [table] […] The trial was carried out between 5 Aug. 2015 and 9 Sep. 2015, with transplanting on 15 Aug. 2015. The mean maximum daily temperature during the trial period was 35.3° C., and mean minimum daily temperature during the trial period was 23.7° C. The mean temperature during the entire trial period was 30.2° C.

[4] = system: rice under heat stress; assay: Yield in 2016 trial (Trial 3)
[5] = treatment 2: 5 g ai/ha, Pigeon-breast
[6] = treatment 3: 10 g ai/ha, Pigeon-breast
[7] = treatment 4: 20 g ai/ha, Pigeon-breast
[8] = treatment 6: 10 g ai/ha, 2-leaf
[9] = treatment 7: 20 g ai/ha, 2-leaf
[10] = treatment 9: 10 g ai/ha, 3-leaf
[11] = treatment 10: 20 g ai/ha, 3-leaf
[12] = treatment 3: 10 g ai/ha, Sowing
[13] = treatment 5: 10 g ai/ha, 2-leaf
[14] = treatment 7: 10 g ai/ha, 3-leaf

Structure (SMILES): COc1cccc(Nc2nc(F)nc3[nH]cnc23)c1 [Formula Ia]
- Tolerance to heat stress / transplant shock stress, comparison of treatments ([1]; Ramapuram trial, treatments 5 and 6 (2-leaf growth stage, 5-10 g ai/ha)): giving the best results
- Transplanting shock stress (8th day) [1, 5]: 12%
- Transplanting shock stress (12th day) [1, 5]: 13%
- Transplanting shock stress (4th day) ([1]; treatment 2: 5 g ai/ha, Pigeon-breast, scale 0% no damage to 100% dead plant): 4%
- Transplanting shock stress (4th day) [1, 6]: 3%
- Transplanting shock stress (8th day) [1, 6]: 7%
- Transplanting shock stress (12th day) [1, 6]: 17%
- Transplanting shock stress (4th day) [1, 7]: 4%
- Transplanting shock stress (8th day) [1, 7]: 8%
- Transplanting shock stress (12th day) [1, 7]: 20%
- Transplanting shock stress (4th day) ([1]; treatment 5: 5 g ai/ha, 2-leaf): 0%
- Transplanting shock stress (8th day) ([1]; treatment 5: 5 g ai/ha, 2-leaf): 2%
- Transplanting shock stress (12th day) ([1]; treatment 5: 5 g ai/ha, 2-leaf): 4%
- Transplanting shock stress (4th day) [1, 8]: 0%
- Transplanting shock stress (8th day) [1, 8]: 1%
- Transplanting shock stress (12th day) [1, 8]: 7%
- Transplanting shock stress (4th day) [1, 9]: 9%
- Transplanting shock stress (8th day) [1, 9]: 8%
- Transplanting shock stress (12th day) [1, 9]: 11%
- Transplanting shock stress (4th day) ([1]; treatment 8: 5 g ai/ha, 3-leaf): 7%
- Transplanting shock stress (8th day) ([1]; treatment 8: 5 g ai/ha, 3-leaf): 12%
- Transplanting shock stress (12th day) ([1]; treatment 8: 5 g ai/ha, 3-leaf): 13%
- Transplanting shock stress (4th day) [1, 10]: 13%
- Transplanting shock stress (8th day) [1, 10]: 20%
- Transplanting shock stress (12th day) [1, 10]: 31%
- Transplanting shock stress (4th day) [1, 11]: 23%
- Transplanting shock stress (8th day) [1, 11]: 37%
- Transplanting shock stress (12th day) [1, 11]: 34%
- Green seeker data (15 DAT afternoon) [2, 5]: 28
- Green seeker data (15 DAT evening) [2, 5]: 31
- Green seeker data (15 DAT morning) [2, 5]: 22
- Green seeker data (15 DAT afternoon) [2, 6]: 25
- Green seeker data (15 DAT evening) [2, 6]: 29
- Green seeker data (15 DAT morning) [2, 6]: 25
- Green seeker data (15 DAT afternoon) [2, 7]: 28
- Green seeker data (15 DAT evening) [2, 7]: 25
- Green seeker data (15 DAT morning) [2, 7]: 21
- Green seeker data (15 DAT afternoon) ([2]; treatment 5: 5 g ai/ha, 2-leaf): 27
- Green seeker data (15 DAT evening) ([2]; treatment 5: 5 g ai/ha, 2-leaf): 34
- Green seeker data (15 DAT morning) ([2]; treatment 5: 5 g ai/ha, 2-leaf): 25
- Green seeker data (15 DAT afternoon) [2, 8]: 29
- Green seeker data (15 DAT evening) [2, 8]: 32
- Green seeker data (15 DAT morning) [2, 8]: 28
- Green seeker data (15 DAT afternoon) [2, 9]: 26
- Green seeker data (15 DAT evening) [2, 9]: 26
- Green seeker data (15 DAT morning) [2, 9]: 22
- Green seeker data (15 DAT afternoon) ([2]; treatment 8: 5 g ai/ha, 3-leaf): 26
- Green seeker data (15 DAT evening) ([2]; treatment 8: 5 g ai/ha, 3-leaf): 30
- Green seeker data (15 DAT morning) ([2]; treatment 8: 5 g ai/ha, 3-leaf): 23
- Green seeker data (15 DAT afternoon) [2, 10]: 26
- Green seeker data (15 DAT evening) [2, 10]: 31
- Green seeker data (15 DAT morning) [2, 10]: 23
- Green seeker data (15 DAT afternoon) [2, 11]: 30
- Green seeker data (15 DAT evening) [2, 11]: 29
- Green seeker data (15 DAT morning) [2, 11]: 25
- Phytotoxic effects to the rice seedlings (summary) ([3]; Ramapuram trial, some marginal effects at the highest dose rate): did not cause any phytotoxic effects
- Greenness at 3.2 leaf [3, 5]: 3 unit
- Seedling height at 3.2 leaf [3, 5]: 13 cm
- Seedling injury [3, 5]: 0%
- Time to 3.2 leaf [3, 5]: 14 days
- Uniformity of foliage growth at 3.2 leaf [3, 5]: 90%
- Uniformity of greening at 3.2 leaf [3, 5]: 95%
- Whiteness of root mat at 3.2 leaf [3, 5]: 90%
- Greenness at 3.2 leaf [3, 6]: 3 unit
- Seedling height at 3.2 leaf [3, 6]: 13 cm
- Seedling injury [3, 6]: 0%
- Time to 3.2 leaf [3, 6]: 14 days
- Uniformity of foliage growth at 3.2 leaf [3, 6]: 90%
- Uniformity of greening at 3.2 leaf [3, 6]: 95%
- Whiteness of root mat at 3.2 leaf [3, 6]: 90%
- Greenness at 3.2 leaf [3, 7]: 3 unit
- Seedling height at 3.2 leaf [3, 7]: 13 cm
- Seedling injury [3, 7]: 0%
- Time to 3.2 leaf [3, 7]: 14 days
- Uniformity of foliage growth at 3.2 leaf [3, 7]: 90%
- Uniformity of greening at 3.2 leaf [3, 7]: 95%
- Whiteness of root mat at 3.2 leaf [3, 7]: 90%
- Greenness at 3.2 leaf ([3]; treatment 5: 5 g ai/ha, 2-leaf): 3 unit
- Seedling height at 3.2 leaf ([3]; treatment 5: 5 g ai/ha, 2-leaf): 15 cm
- Seedling injury ([3]; treatment 5: 5 g ai/ha, 2-leaf): 0%
- Time to 3.2 leaf ([3]; treatment 5: 5 g ai/ha, 2-leaf): 13 days
- Uniformity of foliage growth at 3.2 leaf ([3]; treatment 5: 5 g ai/ha, 2-leaf): 90%
- Uniformity of greening at 3.2 leaf ([3]; treatment 5: 5 g ai/ha, 2-leaf): 95%
- Whiteness of root mat at 3.2 leaf ([3]; treatment 5: 5 g ai/ha, 2-leaf): 85%
- Greenness at 3.2 leaf [3, 8]: 3 unit
- Seedling height at 3.2 leaf [3, 8]: 15 cm
- Seedling injury [3, 8]: 2%
- Time to 3.2 leaf [3, 8]: 13 days
- Uniformity of foliage growth at 3.2 leaf [3, 8]: 90%
- Uniformity of greening at 3.2 leaf [3, 8]: 95%
- Whiteness of root mat at 3.2 leaf [3, 8]: 85%
- Greenness at 3.2 leaf [3, 9]: 2.5 unit
- Seedling height at 3.2 leaf [3, 9]: 15 cm
- Seedling injury [3, 9]: 5%
- Time to 3.2 leaf [3, 9]: 13 days
- Uniformity of foliage growth at 3.2 leaf [3, 9]: 90%
- Uniformity of greening at 3.2 leaf [3, 9]: 85%
- Whiteness of root mat at 3.2 leaf [3, 9]: 80%
- Greenness at 3.2 leaf ([3]; treatment 8: 5 g ai/ha, 3-leaf): 3 unit
- Seedling height at 3.2 leaf ([3]; treatment 8: 5 g ai/ha, 3-leaf): 14 cm
- Seedling injury ([3]; treatment 8: 5 g ai/ha, 3-leaf): 0%
- Time to 3.2 leaf ([3]; treatment 8: 5 g ai/ha, 3-leaf): 13 days
- Uniformity of foliage growth at 3.2 leaf ([3]; treatment 8: 5 g ai/ha, 3-leaf): 90%
- Uniformity of greening at 3.2 leaf ([3]; treatment 8: 5 g ai/ha, 3-leaf): 95%
- Whiteness of root mat at 3.2 leaf ([3]; treatment 8: 5 g ai/ha, 3-leaf): 90%
- Greenness at 3.2 leaf [3, 10]: 3 unit
- Seedling height at 3.2 leaf [3, 10]: 15 cm
- Seedling injury [3, 10]: 0%
- Time to 3.2 leaf [3, 10]: 13 days
- Uniformity of foliage growth at 3.2 leaf [3, 10]: 90%
- Uniformity of greening at 3.2 leaf [3, 10]: 95%
- Whiteness of root mat at 3.2 leaf [3, 10]: 90%
- Greenness at 3.2 leaf [3, 11]: 3 unit
- Seedling height at 3.2 leaf [3, 11]: 15 cm
- Seedling injury [3, 11]: 0%
- Time to 3.2 leaf [3, 11]: 13 days
- Uniformity of foliage growth at 3.2 leaf [3, 11]: 90%
- Uniformity of greening at 3.2 leaf [3, 11]: 95%
- Whiteness of root mat at 3.2 leaf [3, 11]: 90%
- Average yield increase compared to UTC ([4]; treatment 2: 5 g ai/ha, Sowing): +2.9%
- Yield at 14% MC ([4]; treatment 2: 5 g ai/ha, Sowing): 6799 kg/ha
- Average yield increase compared to UTC [4, 12]: −0.1%
- Yield at 14% MC [4, 12]: 6603 kg/ha
- Average yield increase compared to UTC ([4]; treatment 4: 5 g ai/ha, 2-leaf): +6.2%
- Yield at 14% MC ([4]; treatment 4: 5 g ai/ha, 2-leaf): 7014 kg/ha
- Average yield increase compared to UTC [4, 13]: +8.8%
- Yield at 14% MC [4, 13]: 7189 kg/ha
- Average yield increase compared to UTC ([4]; treatment 6: 5 g ai/ha, 3-leaf): +5.6%
- Yield at 14% MC ([4]; treatment 6: 5 g ai/ha, 3-leaf): 6978 kg/ha
- Average yield increase compared to UTC [4, 14]: +3.3%
- Yield at 14% MC [4, 14]: 6830 kg/ha
